Data reported in US20100041089A1, “IMPROVED METHOD FOR DETECTING CHEMICAL […]” (priority 2006, published 2010).

Test system: promoter of yeast gene YKL071w
Assay: Dissolved oxygen measurement with oxygen electrode using yeast transformed with YKL071w promoter linked to oxidase (pyridoxamine phosphate substrate)
Format: cell-based, Saccharomyces cerevisiae W303
Conditions: sample solutions A, B, C with 0.0053, 0.053, 0.53 ppm versus standard solution S; FIG. 4
Method: Primers for PCR to amplify the polynucleotide comprising the promoter of yeast gene YKL071w were prepared. Primers were designed using a primer design software, Oligo4.0-S, Sequencher I Mackintosh version. The base sequence of the upper primer was:
For PCR, yeast chromosome (Saccharomyces cerevisiae S288C, Cat.40802, Research Genetics, Inc.) was used as template, and the commercially available kit (KOD DNA Polymerase; Code KOD-101, Toyobo) was used as reagents. […]
The yeast in a steady state is diluted 500 times with the SD medium, and it is shake cultured at 25° C. for 15 hours. After confirming the logarithmic growth phase at which absorbance at 600 nm is within 0.2 to 0.5, different concentrations of TPN is loaded. […]
By comparing a temporal change in a measured current value for the sample solution A, B or C and a temporal change in a measured current value for the standard solution S, an amount of pyridoxamine phosphate oxidase produced by stimulation of the chemical substance (TPN) in respective solutions for measurement may be determined and, thereby, existence or a quantity of the chemical substance may be detected.

## N#Cc1c(Cl)c(Cl)c(Cl)c(C#N)c1Cl [(9), 2,4,5,6-Tetrachloro-1,3-benzenedicarbonitrile]
  Temporal change in current value for dissolved oxygen measurement: as the concentration of the chemical substance (TPN) becomes larger, a decreasing rate of a current value at an initial stage becomes larger and a steady state value after reaching a plateau becomes lower
